Assay results from patent US20240269158A1, “THERAPEUTIC AGENTS AND METHODS FOR TREATMENT OF BARTONELLOSIS” (THE ADMINISTRATORS OF THE TULANE EDUCATIONAL FUND, priority 2021, published 2024).

Assays:
[1] = system: B. henselae and B. vinsonii; assay: Live/dead BacLight staining; assay type: cell-based, Bartonella; details: 10 μg/ml
Description: To determine the viability of the bacteria grown in liquid culture media, LIVE/DEAD BacLight™ Bacterial viability kit for microscopy (ThermoFisher, L7012) was used according to the manufacturer's protocol. Briefly, 7-day old liquid culture media was used for the determination of the viability. Initially, bacteria were diluted down to an optical density (OD) of 0.1 using the respective liquid culture media. 1 ml of 0.1 OD bacterial culture was then transferred into a 2 ml microcentrifuge tube and centrifuged at 7000 rpm for 10 min. After removing the supernatant, the pellet was resuspended in 1 ml of 0.85% NaCl and bacteria was pelleted again. After three washes, bacteria were resuspended in 1 ml of 0.85% NaCl and incubated with 1 μl of green-fluorescent nucleic acid dye (SYTO9) and 1 μl of red-fluorescent nucleic acid dye (PI) for 15 minutes. All the incubations were performed at room temperature and in the dark. After 15 minutes of incubation with both the dyes, bacteria were visualized under fluorescence microscopy and images were acquired using Nikon NIS elements software. Later, mean fluorescence intensity of both the SYTO9 and PI was measured using the Nikon elements software. Mean fluorescence values were acquired from a total of 10 images per experimental condition. To obtain dead cell counts, bacteria were treated with 70% isopropanol and incubated for 1 hr, while the sample was mixed for every 15 min and stained as above. Additionally, the entire staining protocol was repeated by staining the bacteria with PI first and then with SYTO9 both on dead and live bacteria and the fluorescence values were recorded accordingly. However, in the staining of therapeutic agent treated bacteria, both the dyes were pre-mixed into 1 ml of sterile-filtered distilled water, as previously described and 10 μl of the mixture was added into each well, incubated and visualized as described above.
Bacteria were stained with the live/dead BacLight™ kit to determine the viability of the bacteria before every experiment. […] Viability was also measured after 96 hours on control, untreated bacteria. […]

[2] = system: B. henselae; details: cited from earlier work

SMILES	live/dead staining signal of treated bacteria [1]	activity against growing bacterial culture ([2]; growing culture)	activity against stationary phase B. henselae ([2]; stationary phase)
CC[C@H]1OC(=O)[C@H](C)[C@@H](O[C@H]2C[C@@](C)(OC)[C@@H](O)[C@H](C)O2)[C@H](C)[C@@H](O[C@@H]2O[C@H](C)C[C@H](N(C)C)[C@H]2O)[C@](C)(O)C[C@@H](C)CN(C)[C@H](C)[C@@H](O)[C@]1(C)O [Azithromycin, azithromycin]	showed only SYTO9 signal	effective	very poor activity
CC1(C)S[C@@H]2[C@H](NC(=O)[C@H](NC(=O)N3CCNC3=O)c3ccccc3)C(=O)N2[C@H]1C(=O)O [Azlocillin, azlocillin]	showed only SYTO9 signal		
CO/N=C(\C(=O)N[C@@H]1C(=O)N2C(C(=O)O)=C(CSc3nc(=O)c(=O)[nH]n3C)CS[C@H]12)c1csc(N)n1 [Ceftriaxone, ceftriaxone]	showed only SYTO9 signal		
